Three compounds from patent publication US8604194B2, “Salts of O-desmethyl-venlafaxine” (Lek Pharmaceuticals D.D., priority 2008, dated 2013) can be followed below.

The nature of the data set: Solubility of desvenlafaxine salts in water at 23° C. Conditions: for Solubility of desvenlafaxine salts in water: 23° C.

For the compound `CN(C)CC(c1ccc(O)cc1)C1(O)CCCCC1.O=C[C@H](O)[C@@H](O)[C@H](O)[C@H](O)C(=O)O` (stereo not drawn) [O-desmethyl-venlafaxine glucuronate], the “solubility in water (result in words)” value (refers to Table 1) was “good solubility in water”.

Take `CN(C)CC(c1ccc(O)cc1)C1(O)CCCCC1.O=C(O)C1OC(O)C(O)C(O)C1O` [glucuronate amorphous, desvenlafaxine D-glucuronate]: the “Solubility of desvenlafaxine salts in water” value is 338 mg/mL. Turning to `CN(C)CC(c1ccc(O)cc1)C1(O)CCCCC1.O.O=C(O)C1OC(O)C(O)C(O)C1O` [glucuronate crystalline, desvenlafaxine D-glucuronate monohydrate], the “Solubility of desvenlafaxine salts in water” value was found to be 299 mg/mL.
